Read-outs that look alike come from different tables or passages of the source.
What was measured:
[1] = target: peptidase domain of ColH (ColH-PD) (Hathewaya histolytica, UniProt Q46085); experiment: biochemical; design: species or system Clostridium histolyticum; settings: for inhibition at 1 µM: read-out: ColH-PD % inhibition @ 1 μM
[2] = target: T1, LasB (Pseudomonas aeruginosa, UniProt Q02RJ6); experiment: biochemical; settings: LasB IC50, FRET-based assay
[3] = system: P. aeruginosa strain PA14; experiment: Bacterial growth inhibition assay (MIC) P. aeruginosa; assay type: cell-based, Pseudomonas aeruginosa
[4] = target: ColH; settings: literature inhibitor; cited from earlier work
[5] = target: T1, LasB
[6] = in vitro; settings: human, A549 cells (lung carcinoma)
[7] = in vitro; settings: human, HEK293 cells (embryonal kidney)
[8] = in vitro; settings: human, HepG2 cells (hepatocellular carcinoma)
[9] = target: collagenase unit of ColG (ColG-CU) (Hathewaya histolytica, UniProt Q9X721); experiment: biochemical; design: species or system C. histolyticum; settings: read-out: ColG-CU % inhibition @ 100 μM
Chain of collagenase unit of ColG (ColG-CU) (Q9X721 111-786): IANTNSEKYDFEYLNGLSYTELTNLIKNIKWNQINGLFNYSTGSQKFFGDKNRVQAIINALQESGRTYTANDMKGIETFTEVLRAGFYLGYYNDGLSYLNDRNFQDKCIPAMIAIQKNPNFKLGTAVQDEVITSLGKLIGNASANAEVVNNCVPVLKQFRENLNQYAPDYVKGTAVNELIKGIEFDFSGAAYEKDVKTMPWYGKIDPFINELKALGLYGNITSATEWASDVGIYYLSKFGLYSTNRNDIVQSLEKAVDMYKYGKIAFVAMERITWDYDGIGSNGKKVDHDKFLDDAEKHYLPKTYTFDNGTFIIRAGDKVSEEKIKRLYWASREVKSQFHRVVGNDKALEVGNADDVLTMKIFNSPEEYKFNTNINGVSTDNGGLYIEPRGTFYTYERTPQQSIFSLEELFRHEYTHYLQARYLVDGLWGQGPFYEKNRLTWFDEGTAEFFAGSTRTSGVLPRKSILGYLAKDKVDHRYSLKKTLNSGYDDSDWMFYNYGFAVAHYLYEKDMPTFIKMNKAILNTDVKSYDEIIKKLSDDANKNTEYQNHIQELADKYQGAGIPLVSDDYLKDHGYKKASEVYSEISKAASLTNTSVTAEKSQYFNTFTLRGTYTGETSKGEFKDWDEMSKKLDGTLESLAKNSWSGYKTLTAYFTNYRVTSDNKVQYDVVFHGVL

[10] = target: peptidase domain of ColT (ColT-PD) (Clostridium tetani, UniProt Q899Y1); experiment: biochemical; design: species or system C. tetani; settings: read-out: ColT-PD % inhibition @ 100 μM
Chain of peptidase domain of ColT (ColT-PD) (Q899Y1 340-731 limits assumed): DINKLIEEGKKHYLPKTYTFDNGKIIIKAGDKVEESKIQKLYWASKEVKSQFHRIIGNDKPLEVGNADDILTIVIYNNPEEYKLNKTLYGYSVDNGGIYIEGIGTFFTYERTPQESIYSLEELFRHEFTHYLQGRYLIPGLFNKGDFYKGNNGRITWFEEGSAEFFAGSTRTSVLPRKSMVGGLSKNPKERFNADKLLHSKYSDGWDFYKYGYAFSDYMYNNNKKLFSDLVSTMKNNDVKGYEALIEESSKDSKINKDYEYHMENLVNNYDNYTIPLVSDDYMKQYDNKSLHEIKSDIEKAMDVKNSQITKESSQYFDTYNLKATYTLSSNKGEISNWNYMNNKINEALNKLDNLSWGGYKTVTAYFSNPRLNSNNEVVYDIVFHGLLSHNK

[11] = target: T2, collagenase unit of ColQ1 (ColQ1-CU) (Bacillus cereus, UniProt B9J3S4); experiment: biochemical; design: species or system B. cereus strain Q1; settings: read-out: ColQ1-CU % inhibition @ 100 μM
T2 construct: the collagenase unit of ColQ1 (ColQ1-CU) from B. cereus strain Q1
T2 sequence (B9J3S4 94-765 limits assumed): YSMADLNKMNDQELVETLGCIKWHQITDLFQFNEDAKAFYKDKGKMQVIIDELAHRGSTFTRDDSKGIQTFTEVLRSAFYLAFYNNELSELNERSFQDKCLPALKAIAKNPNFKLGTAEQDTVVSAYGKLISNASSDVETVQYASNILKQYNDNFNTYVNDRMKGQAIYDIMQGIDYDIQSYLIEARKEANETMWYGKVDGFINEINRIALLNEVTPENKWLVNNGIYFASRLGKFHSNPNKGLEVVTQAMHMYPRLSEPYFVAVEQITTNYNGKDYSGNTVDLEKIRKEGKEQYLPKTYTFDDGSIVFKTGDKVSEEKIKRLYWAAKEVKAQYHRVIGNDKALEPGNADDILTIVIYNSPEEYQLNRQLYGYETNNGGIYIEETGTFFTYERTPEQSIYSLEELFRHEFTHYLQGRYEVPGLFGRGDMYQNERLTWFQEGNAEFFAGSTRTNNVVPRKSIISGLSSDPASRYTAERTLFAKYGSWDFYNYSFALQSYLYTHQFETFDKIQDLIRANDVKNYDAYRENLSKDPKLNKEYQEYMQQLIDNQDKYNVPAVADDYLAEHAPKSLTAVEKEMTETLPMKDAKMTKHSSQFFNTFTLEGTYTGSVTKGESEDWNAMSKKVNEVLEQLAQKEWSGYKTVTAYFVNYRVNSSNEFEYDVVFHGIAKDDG

T1 sequence (Q02RJ6 198-498): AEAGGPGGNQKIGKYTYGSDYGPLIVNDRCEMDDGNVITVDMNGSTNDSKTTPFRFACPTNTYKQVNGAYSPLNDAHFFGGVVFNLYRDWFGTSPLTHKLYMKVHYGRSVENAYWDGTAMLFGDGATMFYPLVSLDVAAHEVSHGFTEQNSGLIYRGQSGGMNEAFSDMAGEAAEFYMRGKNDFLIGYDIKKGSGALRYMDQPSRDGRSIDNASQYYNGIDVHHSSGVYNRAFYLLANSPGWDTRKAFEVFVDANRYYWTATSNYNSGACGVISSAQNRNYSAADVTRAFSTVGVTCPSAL
Chain of peptidase domain of ColH (ColH-PD) (Q46085 331-721 limits assumed): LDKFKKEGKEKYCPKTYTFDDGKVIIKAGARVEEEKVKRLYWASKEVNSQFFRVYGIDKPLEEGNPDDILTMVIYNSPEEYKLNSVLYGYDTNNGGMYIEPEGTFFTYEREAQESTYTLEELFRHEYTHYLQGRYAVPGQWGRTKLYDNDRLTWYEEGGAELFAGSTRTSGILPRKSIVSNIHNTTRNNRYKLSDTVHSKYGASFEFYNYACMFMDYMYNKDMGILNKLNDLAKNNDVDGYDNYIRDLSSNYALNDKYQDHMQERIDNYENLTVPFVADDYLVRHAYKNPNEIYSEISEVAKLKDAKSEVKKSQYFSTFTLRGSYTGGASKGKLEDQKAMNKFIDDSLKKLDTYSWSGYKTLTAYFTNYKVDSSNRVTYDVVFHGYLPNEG

Compound	inhibition at 1 µM [1] [%]	IC50 [2] [µM]	other results
CC(=O)SCC1CC(=O)N(c2ccccc2)C1=O (centres unmarked) [Compound 40]	-15 ± 5	> 200	
CC(=O)SC1CC(=O)N(c2ccc(Cl)c(Cl)c2)C1=O (centres unmarked) [Compound 29]	-1 ± 7	> 200	
O=C1CC(S)C(=O)N1c1cccc([N+](=O)[O-])c1 (centres unmarked) [Compound 24]	4 ± 4	22.2 ± 0.4	
CC(=O)SC1CC(=O)N(c2ccc(OC(F)(F)F)c(Cl)c2)C1=O (centres unmarked) [Compound 30]	-11 ± 2	> 200	
O=C1CC(S)C(=O)N1c1ccc(Cl)cc1 (centres unmarked) [Compound 12]	33	16.5 ± 0.8	
O=C1CC(S)C(=O)N1c1c(Cl)cccc1Cl (centres unmarked) [Compound 14]	8 ± 3	16 ± 3.7	
O=C1CC(S)C(=O)N1c1ccc(F)c(F)c1 (centres unmarked) [Compound 15]	2 ± 2	3.5 ± 0.2	MIC [3]: >100 µM; MIC ([3]; Pseudomonas aeruginosa): > 100 µM
CC(C(=O)NO)N(Cc1ccccc1[N+](=O)[O-])S(=O)(=O)c1c(F)c(F)c(F)c(F)c1F (centres unmarked) [Compound 3]			Ki [4]: 0.005 µM
Cc1ccc(N2C(=O)CC(S)C2=O)cc1C (centres unmarked) [Compound 9]	7 ± 2	29.4 ± 0.9	difference in LasB activity between 9 and 22 ([5]; ratio of IC50 values, 9 more active): 5 fold
COc1cccc(N2C(=O)CC(S)C2=O)c1 (centres unmarked) [Compound 19]	-3 ± 9	40.2 ± 1.4	
COc1ccccc1N1C(=O)CC(S)C1=O (centres unmarked) [Compound 18]	0	28.9 ± 1.6	
O=C1CC(S)C(=O)N1c1ccccc1 (centres unmarked) [Compound 7]	8 ± 2	44.2 ± 2.3	
COc1ccc(N2C(=O)CC(CSC(C)=O)C2=O)cc1 (centres unmarked) [Compound 43]	4 ± 6	> 200	
COc1ccc(N2C(=O)CC(S)C2=O)cc1OC (centres unmarked) [Compound 22]	3 ± 11	160 ± 10.1	loss in LasB activity compared to 13 ([5]; ratio of IC50 values): 47 fold
O=C1CC(S)C(=O)N1c1ccc(OC(F)(F)F)c(Cl)c1 (centres unmarked) [Compound 23]	18 ± 12	55.2 ± 4.4	
CC(NC(=O)C(Cc1ccccc1)NC(=O)NS(=O)(=O)c1ccc(F)cc1)C(=O)Nc1nnc(S)s1 (centres unmarked) [Compound 4]			Ki [4]: 0.2 µM

Compound	inhibition at 1 µM [1] [%]	IC50 [2] [µM]	other results
COc1ccc(N2C(=O)CC(SC(C)=O)C2=O)cc1 (centres unmarked) [Compound 28]	24 ± 2	> 200	
CC(=O)SCC1CC(=O)N(c2ccc(Cl)c(Cl)c2)C1=O (centres unmarked) [Compound 41]	-1 ± 2	> 200	
Cc1ccc(Cl)c(C)c1N1C(=O)CC(S)C1=O (centres unmarked) [Compound 17]	6 ± 5	30.5 ± 5.4	
O=C1CC(S)C(=O)N1c1cccc(-c2ccccc2)c1 (centres unmarked) [Compound 26]	7 ± 4	27.6 ± 4	fold more active on LasB than compound 7 [5]: 1.6 fold
CC(=O)SCC1CC(=O)N(c2ccc(C(C)=O)cc2)C1=O (centres unmarked) [Compound 42]	2 ± 5	> 200	
O=C1CC(CS)C(=O)N1c1ccc(Cl)c(Cl)c1 (centres unmarked) [Compound 50]	2 ± 3	5.4 ± 0.7	MIC [3]: >100 µM; MIC ([3]; Pseudomonas aeruginosa): > 100 µM
CC(=O)c1ccc(NC(=O)CS)cc1 [Compound 6, reference compound]			IC50 [6]: > 100 µM; IC50 [7]: 100 µM; IC50 [8]: > 100 µM
Cc1ccc(N2C(=O)CC(S)C2=O)cc1 (centres unmarked) [Compound 8]	34	50.6 ± 1.6	
O=C1CC(S)C(=O)N1c1cccc(Cl)c1 (centres unmarked) [Compound 11]	0	8.1 ± 0.5	
O=C1CC(S)C(=O)N1c1ccc(-c2ccccc2)cc1 (centres unmarked) [Compound 27]	5 ± 2	44.6 ± 1.1	
Cc1ccc(Cl)cc1N1C(=O)CC(S)C1=O (centres unmarked) [Compound 16]	6 ± 1	15 ± 0.6	
CC(=O)c1ccc(N2C(=O)CC(CS)C2=O)cc1 (centres unmarked) [Compound 52]	8 ± 3	> 200	
COc1ccc(N2C(=O)CC(S)C2=O)c(OC)c1 (centres unmarked) [Compound 21]	2 ± 13	45 ± 0.8	
O=C1CC(CS)C(=O)N1c1ccc(F)c(F)c1 (centres unmarked) [Compound 51]	2 ± 1	10.1 ± 1.4	MIC [3]: >100 µM; MIC ([3]; Pseudomonas aeruginosa): > 100 µM
COc1ccc(N2C(=O)CC(S)C2=O)cc1 (centres unmarked) [Compound 20]	74	112 ± 8.9	inhibition at 100 µM [9]: 85 ± 3%; IC50 [1]: 0.32 ± 0.05 µM; inhibition at 100 µM ([1]; read-out: ColH-PD % inhibition @ 100 μM): 95 ± 1%; inhibition at 100 µM [10]: 89 ± 4%; inhibition at 100 µM [11]: 99 ± 1%
O=C1CC(S)C(=O)N1c1ccccc1Cl (centres unmarked) [Compound 10]	8 ± 1	8.5 ± 0.4	
